According to ChEMBL document CHEMBL4507316 (2021):

How the values were obtained:
[1] = molecular target: Mitogen-activated protein kinase kinase kinase 2 (Homo sapiens) (UniProt Q9Y2U5); test: MEKK2 ProQinase selectivity panel; conditions: Compound concentration 1.0 uM
[2] = molecular target: RAC-alpha serine/threonine-protein kinase (Homo sapiens) (UniProt P31749); test: AKT1 ProQinase selectivity panel; conditions: Compound concentration 1.0 uM
[3] = molecular target: Dual specificity protein kinase CLK4 (Homo sapiens) (UniProt Q9HAZ1); test: CLK4 ProQinase selectivity panel; conditions: Compound concentration 1.0 uM
[4] = molecular target: Aurora kinase B (Homo sapiens) (UniProt Q96GD4); test: Aurora-B ProQinase selectivity panel; conditions: Compound concentration 1.0 uM
[5] = molecular target: Activin receptor type-1B (Homo sapiens) (UniProt P36896); test: ACV-R1B ProQinase selectivity panel; conditions: Compound concentration 1.0 uM
[6] = molecular target: Mitogen-activated protein kinase 10 (Homo sapiens) (UniProt P53779); test: JNK3 ProQinase selectivity panel; conditions: Compound concentration 1.0 uM
[7] = system: Epidermal growth factor receptor (Homo sapiens), P00533 [L858R]; test: EGF-R L858R ProQinase selectivity panel; conditions: Compound concentration 1.0 uM
[8] = molecular target: Rho-associated protein kinase 1 (Homo sapiens) (UniProt Q13464); test: ROCK1 ProQinase selectivity panel; conditions: Compound concentration 1.0 uM
[9] = molecular target: Mitogen-activated protein kinase 9 (Homo sapiens) (UniProt P45984); test: JNK2 ProQinase selectivity panel; conditions: Compound concentration 1.0 uM
[10] = molecular target: 5-hydroxytryptamine receptor 1A (Homo sapiens) (UniProt P08908); conditions: Compound concentration 10.0 uM
[11] = molecular target: Serine/threonine-protein kinase pim-3 (Homo sapiens) (UniProt Q86V86); test: PIM3 ProQinase selectivity panel; conditions: Compound concentration 1.0 uM
[12] = molecular target: Serine/threonine-protein kinase Chk2 (Homo sapiens) (UniProt O96017); test: CHK2 ProQinase selectivity panel; conditions: Compound concentration 1.0 uM
[13] = molecular target: Serine/threonine-protein kinase PAK 5 (Homo sapiens) (UniProt Q9P286); test: PAK7 ProQinase selectivity panel; conditions: Compound concentration 1.0 uM
[14] = molecular target: Protein-tyrosine kinase 2-beta (Homo sapiens) (UniProt Q14289); test: PYK2 ProQinase selectivity panel; conditions: Compound concentration 1.0 uM
[15] = molecular target: Inhibitor of nuclear factor kappa-B kinase subunit beta (Homo sapiens) (UniProt O14920); test: IKK-beta ProQinase selectivity panel; conditions: Compound concentration 1.0 uM
[16] = molecular target: Serine/threonine-protein kinase pim-2 (Homo sapiens) (UniProt Q9P1W9); test: PIM2 ProQinase selectivity panel; conditions: Compound concentration 1.0 uM
[17] = molecular target: Serine/threonine-protein kinase VRK1 (Homo sapiens) (UniProt Q99986); test: VRK1 ProQinase selectivity panel; conditions: Compound concentration 1.0 uM
[18] = molecular target: Serine/threonine-protein kinase TAO2 (Homo sapiens) (UniProt Q9UL54); test: TAOK2 ProQinase selectivity panel; conditions: Compound concentration 1.0 uM
[19] = molecular target: Serine/threonine-protein kinase WNK3 (Homo sapiens) (UniProt Q9BYP7); test: WNK3 ProQinase selectivity panel; conditions: Compound concentration 1.0 uM
[20] = molecular target: DNA-dependent protein kinase catalytic subunit (Homo sapiens) (UniProt P78527); test: DNA-PK ProQinase selectivity panel; conditions: Compound concentration 1.0 uM
[21] = molecular target: Serine/threonine-protein kinase Nek7 (Homo sapiens) (UniProt Q8TDX7); test: NEK7 ProQinase selectivity panel; conditions: Compound concentration 1.0 uM
[22] = molecular target: Delta-type opioid receptor (Homo sapiens) (UniProt P41143); conditions: Compound concentration 10.0 uM
[23] = system: Leucine-rich repeat serine/threonine-protein kinase 2 (Homo sapiens), Q5S007 [I2020T]; test: LRRK2 I2020T ProQinase selectivity panel; conditions: Compound concentration 1.0 uM
[24] = molecular target: Tyrosine-protein kinase TXK (Homo sapiens) (UniProt P42681); test: TXK ProQinase selectivity panel; conditions: Compound concentration 1.0 uM
[25] = molecular target: Tyrosine-protein kinase ITK/TSK (Homo sapiens) (UniProt Q08881); test: ITK ProQinase selectivity panel; conditions: Compound concentration 1.0 uM
[26] = system: Hepatocyte growth factor receptor (Homo sapiens), P08581 [Y1230A]; test: MET Y1230A ProQinase selectivity panel; conditions: Compound concentration 1.0 uM
[27] = molecular target: Cyclin-dependent kinase 5/CDK5 activator 1 (Homo sapiens) (UniProt Q00535+Q15078); test: CDK5/p25NCK ProQinase selectivity panel; assay type: protein-complex assay; conditions: Compound concentration 1.0 uM
[28] = molecular target: Serine/threonine-protein kinase haspin (Homo sapiens) (UniProt Q8TF76); test: GSG2 ProQinase selectivity panel; conditions: Compound concentration 1.0 uM
[29] = molecular target: Protein kinase C eta type (Homo sapiens) (UniProt P24723); test: PKC-eta ProQinase selectivity panel; conditions: Compound concentration 1.0 uM
[30] = molecular target: Protein kinase C beta type (Homo sapiens) (UniProt P05771); test: PKC-beta1 ProQinase selectivity panel; conditions: Compound concentration 1.0 uM
[31] = molecular target: Homeodomain-interacting protein kinase 4 (Homo sapiens) (UniProt Q8NE63); test: HIPK4 ProQinase selectivity panel; conditions: Compound concentration 1.0 uM
[32] = molecular target: Fibroblast growth factor receptor 2 (Homo sapiens) (UniProt P21802); test: FGF-R2 ProQinase selectivity panel; conditions: Compound concentration 1.0 uM
[33] = molecular target: Sodium-dependent dopamine transporter (Homo sapiens, UniProt Q01959); test: GPCRScan assay: inhibition of DAT; parameters: radioligand conc. used [nm] 3.6 – 16.0, parental cells stable HEK
[34] = molecular target: Tyrosine-protein kinase Fyn (Homo sapiens) (UniProt P06241); test: FYN ProQinase selectivity panel; conditions: Compound concentration 1.0 uM
[35] = molecular target: D(1A) dopamine receptor (Homo sapiens) (UniProt P21728); conditions: Compound concentration 10.0 uM
[36] = molecular target: Serine/threonine-protein kinase Sgk1 (Homo sapiens) (UniProt O00141); test: SGK1 ProQinase selectivity panel; conditions: Compound concentration 1.0 uM
[37] = molecular target: Dual specificity tyrosine-phosphorylation-regulated kinase 4 (Homo sapiens) (UniProt Q9NR20); test: DYRK4 ProQinase selectivity panel; conditions: Compound concentration 1.0 uM
[38] = molecular target: Alpha-2B adrenergic receptor (Homo sapiens) (UniProt P18089); conditions: Compound concentration 10.0 uM
[39] = system: Tyrosine-protein kinase ABL1 (Homo sapiens), P00519 [F317I]; test: ABL1 F317I ProQinase selectivity panel; conditions: Compound concentration 1.0 uM
[40] = molecular target: G protein-coupled receptor kinase 3 (Homo sapiens) (UniProt P35626); test: GRK3 ProQinase selectivity panel; conditions: Compound concentration 1.0 uM
[41] = system: Proto-oncogene tyrosine-protein kinase receptor Ret (Homo sapiens), P07949 [V804L]; test: RET V804L ProQinase selectivity panel; conditions: Compound concentration 1.0 uM
[42] = molecular target: Protein kinase C beta type (Homo sapiens) (UniProt P05771); test: PKC-beta2 ProQinase selectivity panel; conditions: Compound concentration 1.0 uM
[43] = molecular target: Alpha-2C adrenergic receptor (Homo sapiens) (UniProt P18825); conditions: Compound concentration 10.0 uM
[44] = system: Tyrosine-protein kinase ABL1 (Homo sapiens), P00519 [Y253F]; test: ABL1 Y253F ProQinase selectivity panel; conditions: Compound concentration 1.0 uM
[45] = molecular target: Beta-adrenergic receptor kinase 1 (Homo sapiens) (UniProt P25098); test: GRK2 ProQinase selectivity panel; conditions: Compound concentration 1.0 uM
[46] = molecular target: Serine/threonine-protein kinase BRSK1 (Homo sapiens) (UniProt Q8TDC3); test: BRSK1 ProQinase selectivity panel; conditions: Compound concentration 1.0 uM
[47] = molecular target: Death-associated protein kinase 2 (Homo sapiens) (UniProt Q9UIK4); test: DAPK2 ProQinase selectivity panel; conditions: Compound concentration 1.0 uM
[48] = molecular target: Focal adhesion kinase 1 (Homo sapiens) (UniProt Q05397); test: FAK ProQinase selectivity panel; conditions: Compound concentration 1.0 uM
[49] = molecular target: Mitogen-activated protein kinase kinase kinase 10 (Homo sapiens) (UniProt Q02779); test: MAP3K10 ProQinase selectivity panel; conditions: Compound concentration 1.0 uM
[50] = molecular target: Cyclin-dependent kinase 2/cyclin A (Homo sapiens) (UniProt P24941+P20248+P78396); test: CDK2/CycA ProQinase selectivity panel; assay type: protein-complex assay; conditions: Compound concentration 1.0 uM

Sodium-dependent dopamine transporter, sequence (Q01959 whole entry): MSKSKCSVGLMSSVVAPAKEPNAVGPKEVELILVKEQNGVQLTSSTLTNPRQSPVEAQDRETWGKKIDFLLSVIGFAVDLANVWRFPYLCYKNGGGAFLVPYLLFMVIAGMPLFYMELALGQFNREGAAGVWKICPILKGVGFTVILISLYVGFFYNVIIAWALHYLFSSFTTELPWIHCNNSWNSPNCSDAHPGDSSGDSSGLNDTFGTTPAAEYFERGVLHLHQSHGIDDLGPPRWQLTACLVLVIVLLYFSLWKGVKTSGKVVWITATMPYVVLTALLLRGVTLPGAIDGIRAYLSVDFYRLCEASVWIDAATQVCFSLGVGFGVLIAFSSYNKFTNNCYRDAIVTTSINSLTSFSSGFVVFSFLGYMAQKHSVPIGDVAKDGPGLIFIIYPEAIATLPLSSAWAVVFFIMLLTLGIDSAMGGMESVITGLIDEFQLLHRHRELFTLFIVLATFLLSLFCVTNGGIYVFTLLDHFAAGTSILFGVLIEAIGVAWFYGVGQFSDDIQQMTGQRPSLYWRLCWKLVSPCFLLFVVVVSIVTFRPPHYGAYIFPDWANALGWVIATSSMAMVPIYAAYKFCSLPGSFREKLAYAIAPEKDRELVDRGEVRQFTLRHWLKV
Protein kinase C beta type (Homo sapiens), sequence (P05771 2-671 limits assumed): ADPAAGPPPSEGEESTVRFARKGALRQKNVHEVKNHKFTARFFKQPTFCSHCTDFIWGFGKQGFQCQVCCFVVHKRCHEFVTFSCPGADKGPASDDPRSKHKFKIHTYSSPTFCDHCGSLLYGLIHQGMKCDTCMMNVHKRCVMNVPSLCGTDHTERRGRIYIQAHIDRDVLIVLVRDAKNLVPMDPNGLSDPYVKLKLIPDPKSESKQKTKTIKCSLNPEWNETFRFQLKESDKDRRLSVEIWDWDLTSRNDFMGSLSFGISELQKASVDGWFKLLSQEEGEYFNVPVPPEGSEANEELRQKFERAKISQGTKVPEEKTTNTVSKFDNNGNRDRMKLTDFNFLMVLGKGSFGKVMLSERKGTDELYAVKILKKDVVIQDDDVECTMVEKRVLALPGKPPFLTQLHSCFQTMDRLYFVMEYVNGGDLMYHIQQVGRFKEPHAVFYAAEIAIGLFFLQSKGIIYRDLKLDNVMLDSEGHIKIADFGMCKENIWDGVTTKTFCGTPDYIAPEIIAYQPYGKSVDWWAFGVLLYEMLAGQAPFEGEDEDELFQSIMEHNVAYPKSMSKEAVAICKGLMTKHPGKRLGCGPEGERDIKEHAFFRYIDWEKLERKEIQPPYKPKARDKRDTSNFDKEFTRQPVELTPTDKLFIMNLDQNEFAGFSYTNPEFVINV
Alpha-2B adrenergic receptor (Homo sapiens), sequence (P18089 whole entry): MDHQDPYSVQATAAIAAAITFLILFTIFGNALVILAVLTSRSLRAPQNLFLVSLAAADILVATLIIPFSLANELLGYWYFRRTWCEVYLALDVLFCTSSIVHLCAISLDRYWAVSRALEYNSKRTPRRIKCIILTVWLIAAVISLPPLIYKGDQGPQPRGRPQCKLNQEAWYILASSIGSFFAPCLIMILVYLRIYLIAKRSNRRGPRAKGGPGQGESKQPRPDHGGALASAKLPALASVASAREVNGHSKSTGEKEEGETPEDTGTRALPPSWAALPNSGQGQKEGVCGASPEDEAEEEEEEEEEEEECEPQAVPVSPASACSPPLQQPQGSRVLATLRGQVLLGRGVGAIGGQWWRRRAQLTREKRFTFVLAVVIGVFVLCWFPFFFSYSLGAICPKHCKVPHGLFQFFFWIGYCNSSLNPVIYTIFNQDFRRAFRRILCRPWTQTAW
RAC-alpha serine/threonine-protein kinase (Homo sapiens), sequence (P31749 whole entry): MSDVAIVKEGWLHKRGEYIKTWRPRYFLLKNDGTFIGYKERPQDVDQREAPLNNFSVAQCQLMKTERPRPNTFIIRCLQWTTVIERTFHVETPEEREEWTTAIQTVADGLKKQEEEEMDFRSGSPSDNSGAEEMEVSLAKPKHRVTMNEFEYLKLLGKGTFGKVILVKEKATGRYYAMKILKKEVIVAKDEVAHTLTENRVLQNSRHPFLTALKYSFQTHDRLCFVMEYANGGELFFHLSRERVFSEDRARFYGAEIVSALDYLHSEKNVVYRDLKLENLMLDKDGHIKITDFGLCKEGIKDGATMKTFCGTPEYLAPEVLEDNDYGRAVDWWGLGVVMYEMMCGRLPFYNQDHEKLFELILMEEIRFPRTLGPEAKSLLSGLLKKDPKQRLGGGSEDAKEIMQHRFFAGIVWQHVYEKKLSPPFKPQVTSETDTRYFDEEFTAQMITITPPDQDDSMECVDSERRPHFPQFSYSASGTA
Serine/threonine-protein kinase pim-2 (Homo sapiens), sequence (Q9P1W9 whole entry, looked up): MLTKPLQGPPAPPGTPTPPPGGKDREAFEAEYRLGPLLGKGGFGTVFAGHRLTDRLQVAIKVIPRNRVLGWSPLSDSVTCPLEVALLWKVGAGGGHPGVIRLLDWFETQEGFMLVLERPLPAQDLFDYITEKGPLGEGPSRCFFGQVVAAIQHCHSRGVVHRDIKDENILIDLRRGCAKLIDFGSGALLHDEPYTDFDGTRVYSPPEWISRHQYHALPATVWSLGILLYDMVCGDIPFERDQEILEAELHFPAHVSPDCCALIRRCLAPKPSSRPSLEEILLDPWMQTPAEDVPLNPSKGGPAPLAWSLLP
Tyrosine-protein kinase TXK (Homo sapiens), sequence (P42681 whole entry): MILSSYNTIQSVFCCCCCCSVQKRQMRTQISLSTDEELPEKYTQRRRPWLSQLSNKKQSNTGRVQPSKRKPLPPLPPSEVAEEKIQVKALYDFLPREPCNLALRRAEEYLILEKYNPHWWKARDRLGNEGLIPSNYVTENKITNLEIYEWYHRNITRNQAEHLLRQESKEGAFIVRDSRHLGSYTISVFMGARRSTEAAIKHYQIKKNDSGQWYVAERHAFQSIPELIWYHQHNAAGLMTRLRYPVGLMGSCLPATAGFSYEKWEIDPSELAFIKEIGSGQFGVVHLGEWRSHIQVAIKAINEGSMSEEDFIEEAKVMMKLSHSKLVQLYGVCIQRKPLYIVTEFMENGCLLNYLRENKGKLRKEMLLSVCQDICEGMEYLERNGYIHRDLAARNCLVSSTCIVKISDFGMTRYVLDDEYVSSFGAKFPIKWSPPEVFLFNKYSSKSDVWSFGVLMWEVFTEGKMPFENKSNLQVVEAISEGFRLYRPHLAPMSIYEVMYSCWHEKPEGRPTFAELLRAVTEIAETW
5-hydroxytryptamine receptor 1A (Homo sapiens), sequence (P08908 whole entry): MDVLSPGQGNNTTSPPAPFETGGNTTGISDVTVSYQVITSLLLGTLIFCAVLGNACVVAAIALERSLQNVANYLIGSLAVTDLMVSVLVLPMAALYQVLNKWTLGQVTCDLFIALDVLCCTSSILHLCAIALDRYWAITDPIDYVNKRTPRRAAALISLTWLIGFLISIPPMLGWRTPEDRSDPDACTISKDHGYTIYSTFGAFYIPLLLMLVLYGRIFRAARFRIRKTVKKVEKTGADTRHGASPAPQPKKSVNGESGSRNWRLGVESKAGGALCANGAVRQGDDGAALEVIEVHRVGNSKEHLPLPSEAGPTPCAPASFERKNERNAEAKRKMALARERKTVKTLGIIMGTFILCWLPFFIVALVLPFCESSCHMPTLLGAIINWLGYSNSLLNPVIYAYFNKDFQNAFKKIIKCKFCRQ
Homeodomain-interacting protein kinase 4 (Homo sapiens), sequence (Q8NE63 whole entry): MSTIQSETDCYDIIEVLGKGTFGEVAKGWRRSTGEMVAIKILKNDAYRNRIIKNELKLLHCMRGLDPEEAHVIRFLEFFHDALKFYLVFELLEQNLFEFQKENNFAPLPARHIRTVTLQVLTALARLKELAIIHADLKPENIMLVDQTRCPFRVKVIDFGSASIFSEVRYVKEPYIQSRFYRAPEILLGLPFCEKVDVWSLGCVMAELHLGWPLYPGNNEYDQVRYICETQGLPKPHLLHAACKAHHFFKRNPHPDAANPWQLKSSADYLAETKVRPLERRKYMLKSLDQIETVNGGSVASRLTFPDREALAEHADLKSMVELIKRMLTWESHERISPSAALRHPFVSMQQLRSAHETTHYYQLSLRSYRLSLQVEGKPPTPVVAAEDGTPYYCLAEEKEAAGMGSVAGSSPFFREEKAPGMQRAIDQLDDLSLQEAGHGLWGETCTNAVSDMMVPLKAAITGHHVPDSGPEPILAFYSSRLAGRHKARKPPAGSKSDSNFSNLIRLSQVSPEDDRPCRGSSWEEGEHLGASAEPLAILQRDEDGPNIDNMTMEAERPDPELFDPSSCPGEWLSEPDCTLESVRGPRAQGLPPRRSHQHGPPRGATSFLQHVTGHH
Beta-adrenergic receptor kinase 1 (Homo sapiens), sequence (P25098 whole entry): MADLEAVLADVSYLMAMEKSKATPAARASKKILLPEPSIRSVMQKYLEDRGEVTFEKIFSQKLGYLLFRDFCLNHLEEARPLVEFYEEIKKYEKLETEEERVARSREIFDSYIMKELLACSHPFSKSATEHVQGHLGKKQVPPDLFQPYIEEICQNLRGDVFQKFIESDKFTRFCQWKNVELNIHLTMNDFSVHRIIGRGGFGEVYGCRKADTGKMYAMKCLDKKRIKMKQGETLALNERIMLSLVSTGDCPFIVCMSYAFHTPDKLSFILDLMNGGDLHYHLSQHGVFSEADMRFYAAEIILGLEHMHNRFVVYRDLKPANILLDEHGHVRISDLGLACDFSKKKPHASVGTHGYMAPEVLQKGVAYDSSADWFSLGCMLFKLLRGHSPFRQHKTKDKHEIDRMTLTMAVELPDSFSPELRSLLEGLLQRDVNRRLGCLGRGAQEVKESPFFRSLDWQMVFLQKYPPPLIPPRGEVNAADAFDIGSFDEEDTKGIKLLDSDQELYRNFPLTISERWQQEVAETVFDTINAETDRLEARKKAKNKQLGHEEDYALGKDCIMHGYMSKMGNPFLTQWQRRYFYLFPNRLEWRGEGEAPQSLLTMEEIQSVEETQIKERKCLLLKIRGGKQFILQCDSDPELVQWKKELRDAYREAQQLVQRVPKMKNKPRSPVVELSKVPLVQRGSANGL

% Residual activity with Skepinone-L [1]: 89%
% Residual activity with Skepinone-L [2]: 102%
% Residual activity with Skepinone-L [3]: 100%
% Residual activity with Skepinone-L [4]: 96%
% Residual activity with Skepinone-L [5]: 77%
% Residual activity with Skepinone-L [6]: 33%
% Residual activity with Skepinone-L [7]: 89%
% Residual activity with Skepinone-L [8]: 97%
% Residual activity with Skepinone-L [9]: 58%
inhibition [10]: 40.5%
% Residual activity with Skepinone-L [11]: 78%
% Residual activity with Skepinone-L [12]: 89%
% Residual activity with Skepinone-L [13]: 87%
% Residual activity with Skepinone-L [14]: 102%
% Residual activity with Skepinone-L [15]: 81%
% Residual activity with Skepinone-L [16]: 97%
% Residual activity with Skepinone-L [17]: 88%
% Residual activity with Skepinone-L [18]: 102%
% Residual activity with Skepinone-L [19]: 100%
% Residual activity with Skepinone-L [20]: 82%
% Residual activity with Skepinone-L [21]: 83%
inhibition [22]: 10.3%
% Residual activity with Skepinone-L [23]: 94%
% Residual activity with Skepinone-L [24]: 93%
% Residual activity with Skepinone-L [25]: 97%
% Residual activity with Skepinone-L [26]: 91%
% Residual activity with Skepinone-L [27]: 99%
% Residual activity with Skepinone-L [28]: 82%
% Residual activity with Skepinone-L [29]: 97%
% Residual activity with Skepinone-L [30]: 103%
% Residual activity with Skepinone-L [31]: 116%
% Residual activity with Skepinone-L [32]: 125%
Ki [33]: > 10 µM
pKi [33]: < 5
% Residual activity with Skepinone-L [34]: 124%
inhibition [35]: 5.83%
% Residual activity with Skepinone-L [36]: 90%
% Residual activity with Skepinone-L [37]: 93%
inhibition [38]: 4.37%
% Residual activity with Skepinone-L [39]: 102%
% Residual activity with Skepinone-L [40]: 95%
% Residual activity with Skepinone-L [41]: 115%
% Residual activity with Skepinone-L [42]: 97%
inhibition [43]: 10.8%
% Residual activity with Skepinone-L [44]: 88%
% Residual activity with Skepinone-L [45]: 83%
% Residual activity with Skepinone-L [46]: 94%
% Residual activity with Skepinone-L [48]: 113%
% Residual activity with Skepinone-L [49]: 101%
% Residual activity with Skepinone-L [50]: 101%
Structure (SMILES): O=C1c2ccc(Nc3ccc(F)cc3F)cc2CCc2ccc(OC[C@H](O)CO)cc21 [Skepinone-L]
% Residual activity with Skepinone-L [47]: 88%
